Publication PMC3478134 (Cancer cell, 2012)
Values belong to the compound of their own block, whether it stands above or below them.

Experiments:
USP7 [1] = molecular target: T1, USP7 (Homo sapiens, UniProt Q93009); assay: Ub-PLA2 isopeptidase reporter assay, USP7; type: biochemical; settings: for USP7 inhibitory activity (SAR): Fig 1C/1D
MM.1S cells [2] = assay: Viability of scr- or HDM2-siRNA transfected MM.1S cells; type: cell-based, human; settings: 24 hr
CCRF-CEM leukemic tumors = assay: CCRF-CEM leukemic xenograft; settings: 10 mg/kg twice weekly for 3 weeks
ANBL-6.WT cells = assay: Cell viability, ANBL-6.WT; type: cell-based
INA-6 MM tumors = assay: SCID-hu model, INA-6 MM tumors, serum shIL-6R; type: in vivo, mice; settings: 10 mg/kg
[3] = Tolerability in tumor-bearing mice; settings: twice-weekly schedule
USP7 [4] = molecular target: T1, USP7; assay: Cellular USP7 activity in MM.1S cells, Ub-EKL assay after immunoprecipitation; type: cell-based; settings: 3 hr, concentration-dependent
p53^−/−/MDM2^−/− MEFs = assay: Viability, p53^−/−/MDM2^−/− MEFs; type: cell-based, mouse; settings: 48 hr
USP7 [5] = molecular target: T1, USP7; assay: HA-UbVME active site probe competition, HEK293T cells; type: cell-based; settings: lysates from treated HEK293T cells; concentrations as low as
U2OS cells = assay: IC50 in U2OS cells; type: cell-based
ARP-1 MM cells = assay: Viability, p53-null ARP-1 MM cells; type: cell-based, human; settings: p53-null ARP-1, 48 hr
HDM2 = HDM2 ubiquitylation; type: cell-based; settings: U2OS
MM.1S cells [6] = assay: Viability of scr- or p21-siRNA transfected MM.1S cells; type: cell-based, human; settings: 48 hr
USP7 [7] = molecular target: T1, USP7; assay: Ubiquitin-linked K48 chain cleavage assay, USP7; type: biochemical; settings: Ub7 and K48-linked chains
MM cells = assay: Apoptosis; type: cell-based, human; settings: Fig S3E
MM.1S cells [8] = assay: Viability of scr- or p53-siRNA transfected MM.1S cells; type: cell-based, human; settings: 48 hr
ARP-1 MM tumors = assay: Human p53-null ARP-1 MM xenograft
UCHL1 = UCHL1 (Homo sapiens, UniProt P09936); assay: DUB inhibition in cells; type: cell-based; settings: Fig S1A
UCHL3 = UCHL3 (Homo sapiens, UniProt P15374); assay: DUB inhibition in cells; type: cell-based; settings: Fig S1A
[9] = tested on: HCT116 p53 (WT) and HCT116 p53^−/− cells; assay: Viability, HCT116 p53; type: cell-based, human; settings: 72 hr
proteasome = assay: Proteasome activity in MM.1S cells; type: cell-based, human; settings: for Chymotrypsin-like (CT-L) proteasome activity: MM.1S cells, 3 hr
HCT116 USP7^−/− cells = assay: MTT viability, HCT116 USP7^−/−; type: cell-based, human; settings: HCT116 USP7^−/− versus WT
HCT116 p21^−/− cells = settings: 48 hr, versus HCT116 (WT)
HDM2, HDMX, p53, p21 = assay: Immunoblot of HDM2/HDMX/p53/p21 in MM.1S and RPMI-8226 cells; type: cell-based, human; settings: 6.25 and 12.5 μM, 24 hr
other DUBs = assay: HA-UbVME probe labeling of other DUBs, HEK293T cells; type: cell-based; settings: even at 40 μM
USP5 = USP5 (Homo sapiens, UniProt P45974); assay: DUB inhibition in cells; type: cell-based; settings: Fig S1A
[10] = tested on: purified patient MM cells; assay: Purified patient MM cell viability; type: cell-based, human; settings: 8 MM patients, 48 hr
[11] = tested on: MM.1S cells cultured with BMSCs; assay: MM.1S proliferation with BMSCs, 3H-TdR uptake; type: cell-based, human; settings: 72 hr
p53^−/− MEFs = assay: Viability, p53^−/− MEFs; type: cell-based, mouse; settings: 48 hr
[12] = tested on: other DUBs or other families of cysteine proteases; assay: Ub-PLA2 / protease panel, selectivity; type: biochemical; settings: read-out: EC50, other DUBs or other families of cysteine proteases; Fig 1D
MM.1S MM tumors = assay: Human MM.1S plasmacytoma xenograft
HCT116 (WT) cells = assay: MTT viability, HCT116; type: cell-based, human; settings: 24, 48, 72 hr
[13] = mouse, in vivo
ANBL-6.BR cells = assay: Cell viability, ANBL-6.BR; type: cell-based
[14] = tested on: MM cells from bortezomib-resistant patients; assay: Viability of MM cells from bortezomib-resistant patients; type: cell-based, human; settings: 12.5 nM, 48 hr, in 3 of 6 samples
MM cell lines = assay: MM cell line viability; type: cell-based, human
[15] = 10 mg/kg IV twice weekly for 3 weeks

T1 sequence (Q93009 whole entry): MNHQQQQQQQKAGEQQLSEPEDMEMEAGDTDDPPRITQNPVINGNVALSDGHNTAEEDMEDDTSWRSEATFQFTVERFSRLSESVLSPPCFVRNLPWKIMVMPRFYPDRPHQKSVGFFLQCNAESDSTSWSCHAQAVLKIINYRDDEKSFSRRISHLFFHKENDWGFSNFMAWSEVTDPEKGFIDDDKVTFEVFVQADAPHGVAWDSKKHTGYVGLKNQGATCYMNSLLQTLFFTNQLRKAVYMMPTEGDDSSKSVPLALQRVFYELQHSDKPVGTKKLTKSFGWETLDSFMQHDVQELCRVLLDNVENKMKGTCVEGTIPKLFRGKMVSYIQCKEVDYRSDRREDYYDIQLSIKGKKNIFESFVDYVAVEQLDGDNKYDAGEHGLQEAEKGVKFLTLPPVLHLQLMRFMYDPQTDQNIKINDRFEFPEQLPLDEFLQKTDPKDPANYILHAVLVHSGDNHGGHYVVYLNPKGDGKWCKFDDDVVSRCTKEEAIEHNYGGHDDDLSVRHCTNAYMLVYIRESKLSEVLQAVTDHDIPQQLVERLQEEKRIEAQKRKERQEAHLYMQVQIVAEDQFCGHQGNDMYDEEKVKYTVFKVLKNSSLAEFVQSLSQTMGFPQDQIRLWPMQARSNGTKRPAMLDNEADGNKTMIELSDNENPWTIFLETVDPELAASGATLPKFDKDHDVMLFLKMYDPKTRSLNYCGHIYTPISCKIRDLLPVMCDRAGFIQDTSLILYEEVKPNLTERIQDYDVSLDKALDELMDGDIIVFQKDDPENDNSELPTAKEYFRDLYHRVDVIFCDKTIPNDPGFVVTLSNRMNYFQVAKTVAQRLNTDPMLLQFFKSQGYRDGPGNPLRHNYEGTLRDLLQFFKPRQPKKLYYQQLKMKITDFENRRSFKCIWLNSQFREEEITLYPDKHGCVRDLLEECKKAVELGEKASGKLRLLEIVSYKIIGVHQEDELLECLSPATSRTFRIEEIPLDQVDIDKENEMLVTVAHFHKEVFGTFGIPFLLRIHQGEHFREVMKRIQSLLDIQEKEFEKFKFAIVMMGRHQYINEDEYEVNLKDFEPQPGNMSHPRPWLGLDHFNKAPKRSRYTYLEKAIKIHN
Chain of UCHL1 (P09936 whole entry): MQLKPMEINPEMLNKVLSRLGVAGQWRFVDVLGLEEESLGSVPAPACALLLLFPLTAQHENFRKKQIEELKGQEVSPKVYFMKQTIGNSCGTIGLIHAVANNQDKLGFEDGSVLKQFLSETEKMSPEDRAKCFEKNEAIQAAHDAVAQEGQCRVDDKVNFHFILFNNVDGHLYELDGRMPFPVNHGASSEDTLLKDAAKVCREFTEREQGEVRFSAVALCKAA
Chain of USP5 (P45974 whole entry): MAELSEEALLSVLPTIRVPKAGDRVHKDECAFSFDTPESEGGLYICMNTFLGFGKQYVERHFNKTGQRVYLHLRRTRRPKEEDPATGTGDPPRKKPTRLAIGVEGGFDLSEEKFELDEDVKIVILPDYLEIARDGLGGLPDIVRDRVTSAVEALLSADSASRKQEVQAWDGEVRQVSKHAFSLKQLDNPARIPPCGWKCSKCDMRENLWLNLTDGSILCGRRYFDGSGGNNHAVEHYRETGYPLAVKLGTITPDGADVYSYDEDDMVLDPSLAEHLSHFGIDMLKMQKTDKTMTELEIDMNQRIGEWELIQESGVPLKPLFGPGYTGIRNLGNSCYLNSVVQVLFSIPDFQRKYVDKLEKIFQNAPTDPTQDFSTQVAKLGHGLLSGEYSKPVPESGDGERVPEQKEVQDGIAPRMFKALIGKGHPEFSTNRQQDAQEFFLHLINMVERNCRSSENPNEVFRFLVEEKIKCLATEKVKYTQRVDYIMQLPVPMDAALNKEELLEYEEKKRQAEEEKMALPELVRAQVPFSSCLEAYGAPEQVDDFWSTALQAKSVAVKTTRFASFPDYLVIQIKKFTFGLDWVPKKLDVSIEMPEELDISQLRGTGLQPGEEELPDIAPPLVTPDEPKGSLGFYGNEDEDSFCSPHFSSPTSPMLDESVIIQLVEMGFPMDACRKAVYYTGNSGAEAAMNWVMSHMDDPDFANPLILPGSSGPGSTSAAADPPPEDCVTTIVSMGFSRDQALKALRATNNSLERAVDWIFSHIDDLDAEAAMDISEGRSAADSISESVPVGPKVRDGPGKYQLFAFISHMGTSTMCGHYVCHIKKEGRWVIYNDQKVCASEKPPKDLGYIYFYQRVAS
Chain of UCHL3 (P15374 whole entry): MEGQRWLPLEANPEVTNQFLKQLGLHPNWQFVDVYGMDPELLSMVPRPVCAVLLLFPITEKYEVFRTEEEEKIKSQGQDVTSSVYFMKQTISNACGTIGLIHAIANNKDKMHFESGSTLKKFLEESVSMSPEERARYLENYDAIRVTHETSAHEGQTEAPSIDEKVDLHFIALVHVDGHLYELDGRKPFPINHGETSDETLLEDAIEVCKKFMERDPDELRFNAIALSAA

Compound: CC(=O)c1cc([N+](=O)[O-])c(Sc2cccc(Cl)c2Cl)s1 [P5091]
EC50 (USP7 [1]; read-out: EC50, deubiquitylating activity against USP7, Ub-PLA2 reporter assay): 4.2 ± 0.9 µM
Percentage of viable cells (MM.1S cells [2]; HDM2-siRNA, P5091 6.25 μM): 73.3%
Percentage of viable cells (MM.1S cells [2]; HDM2-siRNA, P5091 12.5 μM): 19.2%
Percentage of viable cells (MM.1S cells [2]; scr-siRNA, P5091 6.25 μM): 47.2%
Percentage of viable cells (MM.1S cells [2]; scr-siRNA, P5091 12.5 μM): 8.6%
Survival (CCRF-CEM leukemic tumors): prolongs survival
Tumor growth (CCRF-CEM leukemic tumors): inhibits leukemic tumor growth
IC50 (ANBL-6.WT cells; ANBL-6.WT, 48 hr): 6.83 µM
Tumor growth (serum shIL-6R) (INA-6 MM tumors): inhibited tumor growth
MTD dose [3]: 20 mg/kg
Inhibition of USP7 activity (USP7 [4]): > 50%
IC50 (p53^−/−/MDM2^−/− MEFs): 20.9 µM
Concentration inhibiting Ub-USP7 conjugate formation (HA-UbVME labeling) (USP7 [5]): 5 to 10 µM
IC50 (U2OS cells): 15 µM
Cell viability (ARP-1 MM cells): decreases the viability
HDM2 degradation (HDM2; 15 μM, versus CHX alone): accelerates the degradation of HDM2
HDM2 ubiquitination (HDM2; HA-Ub transfected, 30 μM, 4 hr): markedly increases HDM2 ubiquitination
Effect of p21 silencing with siRNA on cytotoxicity (MM.1S cells [6]): attenuates P5091-induced cytotoxicity
USP7-mediated cleavage of poly ubiquitin chains (USP7 [7]): inhibited in a dose-dependent manner
Apoptosis (Annexin V/PI) (MM cells): accumulation of cells in early (Ann V^+/PI^−) and late stage (Ann V^+/PI^+) apoptosis
Effect of p53 depletion by siRNA on drug-induced decrease in viability (MM.1S cells [8]): does not affect
Survival (ARP-1 MM tumors; [15]): prolongs survival
Tumor growth (ARP-1 MM tumors; [15]): inhibits MM tumor growth
USP7 activity in tumors (ARP-1 MM tumors; compared with control mice, at 3 hr): marked inhibition of USP7 activity
Inhibition of UCHL1 (UCHL1): did not inhibit
Inhibition of UCHL3 (UCHL3): did not inhibit
Cytotoxicity in HCT116 p53 (WT) versus HCT116 p53^−/− [9]: equipotent cytotoxicity in both cell types
Caspase-like (C-L) proteasome activity (proteasome; 25–50 μM): no effect
Trypsin-like (T-L) proteasome activity (proteasome; 25–50 μM): no effect
Chymotrypsin-like (CT-L) proteasome activity (proteasome): no significant inhibition
Cytotoxic activity (HCT116 USP7^−/− cells): marked reduction in P5091 cytotoxic activity
Cytotoxicity in HCT116 p21^−/− cells (HCT116 p21^−/− cells): significantly blocked
HDM2, HDMX, p53 and p21 protein levels (HDM2, HDMX, p53, p21): decreased HDM2 and HDMX, as well as upregulated p53 and p21 levels
Labeling of other DUBs with Ub-VME (other DUBs): No gross difference
Inhibition of USP5 (USP5): did not inhibit
Viability of patient MM cells [10]: dose-dependent decrease in the viability
BMSCs-induced proliferation of MM.1S [11]: inhibited BMSCs-induced proliferation
IC50 (p53^−/− MEFs): 7.72 µM
EC50 [12]: > 100 µM
Survival (MM.1S MM tumors; [15]): prolongs survival
Tumor growth (MM.1S MM tumors; [15]): inhibits MM tumor growth
Proliferation in harvested tumors (MM.1S MM tumors; BrdU and Ki67 staining): decreases proliferation
Apoptotic tumor cells (MM.1S MM tumors; cleaved caspase-3, TUNEL, versus vehicle): increases the number of cleaved-caspase-3-, and TUNEL-positive apoptotic tumor cells
Angiogenesis markers in tumors (MM.1S MM tumors; immunostaining VEGFR2, PECAM1): decreases the number of VEGFR2- and PECAM1-positive cells
USP7 activity in harvested tumors (MM.1S MM tumors; relative to control mice): inhibited USP7 activity
Cell viability (HCT116 (WT) cells): decreased the viability
Blood chemistry profile [13]: normal levels of bilirubin, hemoglobin, and creatinine
Weight loss [13]: no significant weight loss
IC50 (ANBL-6.BR cells; ANBL-6.BR, 48 hr): 9.85 µM
IC50 ratio (ANBL-6.BR/ANBL-6.WT) (ANBL-6.BR cells; p < 0.001): significantly less than bortezomib

Compound: CC(C)C[C@H](NC(=O)[C@H](Cc1ccccc1)NC(=O)c1cnccn1)B(O)O [bortezomib, reference compound]
IC50 (ANBL-6.WT cells; 48 h): 0.00232 µM
Chymotrypsin-like (CT-L) proteasome activity (proteasome): blocks
Decrease in viability [14]: 10%–50%
IC50 (ANBL-6.BR cells; 48 h): 0.0121 µM

USP7 inhibitory activity (SAR) (USP7 [1]): inactive
USP7 inhibitory activity (SAR) (USP7 [1]; listed as 1): not active
Compound: CC(=O)c1cc([N+](=O)[O-])c(Sc2ccccc2)s1 [P22074]
Effect on viability of MM cell lines (MM cell lines): no significant effect
